Values quoted from earlier work in patent US7781400B2, “Pharmaceutical compositions comprising dextran with a molecular weight of 1.0-100 KDA and processes for their preparation” (BOWS Pharmaceuticals AG, priority 2006, dated 2010).

Conditions: in vivo

In the case of polyglycolide, the “adverse tissue response rates” value is given as “up to 47%”.
